# Laboratory results published in patent US20250388574A1, “HETEROCYCLIC COMPOUNDS AS TRIGGERING RECEPTOR EXPRESSED ON MYELOID CELLS 2 AGONISTS AND METHODS OF USE” (AMGEN INC., priority 2020, published 2025).
# pEC50: −log10 of the molar value.
# Target: hTREM2 (Homo sapiens, UniProt Q9NZC2)
# Test: Phospho-Syk AlphaScreen/AlphaLISA assay in TREM2 and DAP12 overexpressing HEK293 cells (Example A1)
# Assay type: cell-based
# Design: expressed in transfected cells
# Conditions: HEK293 cells; for pEC50: read-out: hTREM2 EC50
# Procedure: Pharmacological measurements of TREM2 signaling through DAP12 were made with TREM2 and DAP12 overexpressing HEK293 cells stable cell lines that had been single-cell cloned (“TREM2/DAP12-HEK”). The readout of the TREM2 signaling utilized Perkin Elmer AlphaScreen/AlphaLISA technology monitoring the phosphorylation levels of the Syk kinase. TREM2/DAP12-HEK cell lines were cultured in DMEM-F12 (Corning 10-092-CM) supplemented with 1× Penicillin/Streptomycin (Corning 30-002-CI), 1× GlutaMAX (Gibco 35050-061), and 10% Fetal Bovine Serum (Life Technologies 10099) referred to as “HEK Culture Medium”. Suspensions of TREM2/DAP12-HEK cells were prepared in HEK Culture Medium and dispensed into 384-well poly-D-lysine coated microplates (Corning 354661) at a density of 20,000 cells/well using a Multidrop Combi peristaltic microplate dispenser (Thermo), 25 uL volume of cell suspension/well. Plates containing cells were then incubated for 20 hours in a humidified cell culture incubator at 37° C. with 5% CO2 (Thermo). […] Assay Buffer contained diluted test articles (in 1% final DMSO concentration for compounds) or 100 nM anti-human/mouse TREM2 antibody (R&D Systems MAB17291) as a positive control, 100 nM or rat IgG2B isotype Ab as a negative control (R&D Systems MAB0061). Incubated the plates with test articles and controls for 45 minutes at room temperature and then aspirated/removed the medium from each well of the plates. Used a Multidrop Combi peristaltic liquid handler (Thermo) to dispense 15 uL/well of “Cell Lysis Immunoassay Buffer”. The Cell Lysis Immunoassay Buffer contained M-PER Mammalian Protein Extraction Reagent (Pierce/ThermoFisher 78505), 1× Halt Phosphatase Inhibitor Cocktail (ThermoFisher #78427), 0.1875 nM anti-phospho-Syk ([…]/526) ([…]) rabbit mAb (Cell Signaling Technologies catalog #2710), and 1.5 nM biotinylated Mouse anti-human Syk (4D10) antibody (BD Biosciences, catalog #624008). Incubated plates for 1 hour at room temperature after the addition of the Cell Lysis Immunoassay Buffer. Used the Multidrop Combi liquid handler to dispense 15 μL of AlphaScreen Acceptor Bead Solution containing 7.5 μg/mL anti-rabbit IgG (Fc specific) AlphaLISA Acceptor Beads (Perkin Elmer A[…]) in 1× Immunoassay buffer (Perkin Elmer A[…]) to each well of the microplates. Incubated plates for 2 hours at room temperature. Following the incubation with the AlphaLISA Acceptor Bead Solution, used a Multidrop Combi liquid handler (Thermo) to dispense 15 μL of AlphaScreen Donor Bead Solution containing 30 μg/mL of AlphaScreen Streptavidin Donor beads (Perkin Elmer 6760002B) in 1× Immunoassay buffer (Perkin Elmer A[…]) to each well of the microplates. Incubated microplates for 2 hours protected from light sources as the AlphaScreen reagents are light sensitive. Once the final incubation was completed, acquired AlphaScreen signal from the donor and acceptor beads using an Envision high throughput multi-modal microplate reader (Perkin Elmer) calibrated to the plate type with the AlphaScreen mirror and filter-set in 384-well mode, 680 nanometer excitation wavelength. The total measurement time per well was 550 milliseconds with a 180 millisecond excitation time. After reading the AlphaScreen signal for each well of the microplates, on a plate-by-plate basis, each raw test article well value (x) was normalized to a Percent of Control (“POC”) value using the following formula: […] Each plate contained 12 of each type of control wells that were used to generate the mean values. For concentration response curve analysis with test articles tested at various concentrations, the % of activation values were analyzed with 4 Parameter Logistic or Sigmoidal Dose-Response Models using GeneData Screener (GeneData, AG) or GraphPad Prism 7 (Graphpad Software, Inc.). […] This assay may be used to test any of the compounds described herein to assess and characterize a compound's ability to act as an agonist of TREM2.
# hTREM2, sequence (Q9NZC2 19-230): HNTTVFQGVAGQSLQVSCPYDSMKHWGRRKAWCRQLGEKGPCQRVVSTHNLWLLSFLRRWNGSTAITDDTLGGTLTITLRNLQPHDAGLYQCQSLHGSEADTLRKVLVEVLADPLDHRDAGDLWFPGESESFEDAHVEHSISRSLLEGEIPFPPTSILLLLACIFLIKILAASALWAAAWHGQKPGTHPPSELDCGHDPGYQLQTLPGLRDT
# hTREM2, sequence (O43914 22-113 partner): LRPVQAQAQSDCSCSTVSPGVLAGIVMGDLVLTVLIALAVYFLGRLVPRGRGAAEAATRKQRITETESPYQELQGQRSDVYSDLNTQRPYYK
Compound,Emax,pEC50
"Cc1cc(Cl)cnc1-c1nc(N2CCOC(c3cnn(C)c3)C2)cc2nc(C)n(C)c(=O)c12 (stereo not shown) [Example 16, 5-(5-chloro-3-methyl-2-pyridinyl)-2,3-dimethyl-7-(2-(1-methyl-1H-pyrazol-4-yl)-4-morpholinyl)pyrido[4,3-d]pyrimidin-4(3H)-one]",+ (Emax>45 and ≤100),4.00 to 5.52
"C=Cn1cc([C@H]2CN(c3cc4nc(C)n(C)c(=O)c4c(-c4ccc(Cl)cc4F)n3)CCO2)cn1 [Example 137, 5-(4-chloro-2-fluorophenyl)-7-((2S)-2-(1-ethenyl-1H-pyrazol-4-yl)-4-morpholinyl)-2,3-dimethylpyrido[4,3-d]pyrimidin-4(3H)-one]",++++ (Emax>300),> 7.30
"Cc1nc2cc(N3CCc4ncccc4C3)nc(-c3ccc(Cl)cc3F)c2c(=O)n1C [Example 248, 5-(4-chloro-2-fluorophenyl)-7-(7,8-dihydro-1,6-naphthyridin-6(5H)-yl)-2,3-dimethylpyrido[4,3-d]pyrimidin-4(3H)-one]",+++ (Emax>200 and ≤300),4.00 to 5.52
"Cc1nc2cc(N3CCO[C@@H](c4cnn(C5CN(C)C5)c4)C3)nc(-c3ccc(Cl)cc3F)c2c(=O)n1C [Example 138, 5-(4-chloro-2-fluorophenyl)-2,3-dimethyl-7-((2S)-2-(1-(1-methyl-3-azetidinyl)-1H-pyrazol-4-yl)-4-morpholinyl)pyrido[4,3-d]pyrimidin-4(3H)-one]",+++ (Emax>200 and ≤300),6.30 to 7.30
"COc1cc([C@@H]2CN(c3cc4nc(C)n(C)c(=O)c4c(-c4ccc(Cl)cc4F)n3)CCO2)ccn1 (single isomer, unassigned) [Example 83]",++++ (Emax>300),6.30 to 7.30
"Cc1nc2cc(N3CC[C@H](N4CCOCC4)C3)nc(-c3ccc(Cl)cc3F)c2c(=O)n1C [Example 208, (S)-5-(4-chloro-2-fluorophenyl)-2,3-dimethyl-7-(3-morpholinopyrrolidin-1-yl)pyrido[4,3-d]pyrimidin-4(3H)-one]",++ (Emax>100 and ≤200),4.00 to 5.52
"Cc1nc2cc(N3CCC[C@H](N4CCC4)C3)nc(-c3ccc(Cl)cc3F)c2c(=O)n1C [Example 245, (S)-7-(3-(azetidin-1-yl)piperidin-1-yl)-5-(4-chloro-2-fluorophenyl)-2,3-dimethylpyrido[4,3-d]pyrimidin-4(3H)-one]",++ (Emax>100 and ≤200),4.00 to 5.52
"Cc1ncc([C@@H]2CN(c3cc4nc(C)n(C)c(=O)c4c(-c4ccc(Cl)cc4F)n3)CCO2)cn1 (single isomer, unassigned) [Example 64]",++++ (Emax>300),6.30 to 7.30
"CCn1c(C)nc2cc(N3CCO[C@H](c4noc(C)n4)C3)nc(-c3ccc(Cl)cc3F)c2c1=O [Example 264, (S)-5-(4-chloro-2-fluorophenyl)-3-ethyl-2-methyl-7-(2-(5-methyl-1,2,4-oxadiazol-3-yl)morpholino)pyrido[4,3-d]pyrimidin-4(3H)-one]",+++ (Emax>200 and ≤300),6.30 to 7.30
"Cc1nc2cc(N3CCO[C@H](c4cnn(C)c4)C3)cc(-c3ccc(Cl)cc3F)c2c(=O)n1C [Example 221, (R)-5-(4-chloro-2-fluorophenyl)-2,3-dimethyl-7-(2-(1-methyl-1H-pyrazol-4-yl)morpholino)quinazolin-4(3H)-one]",++++ (Emax>300),6.30 to 7.30
"Cc1nc2cc(N3CCO[C@@H](c4cnn(C)c4)C3)nc(-c3ccc(Cl)cc3F)c2c(=O)n1C1CCCCC1 [Example 18, 5-(4-chloro-2-fluorophenyl)-3-cyclohexyl-2-methyl-7-((2S)-2-(1-methyl-1H-pyrazol-4-yl)-4-morpholinyl)pyrido[4,3-d]pyrimidin-4(3H)-one]",++ (Emax>100 and ≤200),5.52 to 6.30
"Cc1nc2cc(N3CCO[C@@H]([C@@H]4CCO4)C3)nc(-c3ccc(Cl)cc3F)c2c(=O)n1C [Example 270, 5-(4-chloro-2-fluorophenyl)-2,3-dimethyl-7-((R)-2-((S)-oxetan-2-yl)morpholino)pyrido[4,3-d]pyrimidin-4(3H)-one]",+++ (Emax>200 and ≤300),5.52 to 6.30
"Cc1nnc([C@H]2CN(c3cc4nc(C)n(C)c(=O)c4c(-c4ccc(Cl)cc4F)n3)CCO2)o1 [Example 271, (R)-5-(4-chloro-2-fluorophenyl)-2,3-dimethyl-7-(2-(5-methyl-1,3,4-oxadiazol-2-yl)morpholino)pyrido[4,3-d]pyrimidin-4(3H)-one]",+++ (Emax>200 and ≤300),6.30 to 7.30
"Cc1nc2cc([C@@H]3CCO[C@H](c4cccnc4)C3)nc(-c3ccc(Cl)cc3F)c2c(=O)n1C (single isomer, unassigned) [Example 178]",++++ (Emax>300),5.52 to 6.30
"Cc1nc2cc(N3CCO[C@@H](c4ccncc4)C3)nc(-c3ccc(Cl)cc3F)c2c(=O)n1C (single isomer, unassigned) [Example 49]",++++ (Emax>300),> 7.30
"Cc1cc([C@H]2C[C@@H](c3cc4nc(C)n(C)c(=O)c4c(-c4ccc(Cl)cc4F)n3)CCO2)ccn1 (single isomer, unassigned) [Example 169]",+++ (Emax>200 and ≤300),> 7.30
"Cc1nc2cc(N3CCC[C@H](c4cnn(C)c4)C3)nc(-c3ccc(Cl)cc3F)c2c(=O)n1C [Example 214, (R)-5-(4-chloro-2-fluorophenyl)-2,3-dimethyl-7-(3-(1-methyl-1H-pyrazol-4-yl)piperidin-1-yl)pyrido[4,3-d]pyrimidin-4(3H)-one]",++++ (Emax>300),6.30 to 7.30
"Cc1nc2cc(N3CCO[C@@H](c4cccc(C(F)(F)F)c4)C3)nc(-c3ccc(Cl)cc3F)c2c(=O)n1C (single isomer, unassigned) [Example 91]",++ (Emax>100 and ≤200),5.52 to 6.30
"COc1cc([C@@H]2C[C@H](c3cc4nc(C)n(C)c(=O)c4c(-c4ccc(Cl)cc4F)n3)CCO2)ccn1 [Example 267, 5-(4-chloro-2-fluorophenyl)-7-((2S,4R)-2-(2-methoxypyridin-4-yl)tetrahydro-2H-pyran-4-yl)-2,3-dimethylpyrido[4,3-d]pyrimidin-4(3H)-one]",+++ (Emax>200 and ≤300),> 7.30
"Cc1nc2cc(N3CCO[C@@H](c4cnn(C(F)F)c4)C3)nc(-c3ccc(Cl)cc3F)c2c(=O)n1C [Example 253, (S)-5-(4-chloro-2-fluorophenyl)-7-(2-(1-(difluoromethyl)-1H-pyrazol-4-yl)morpholino)-2,3-dimethylpyrido[4,3-d]pyrimidin-4(3H)-one]",++++ (Emax>300),> 7.30
"Cc1nc2cc(N3C[C@H](C)O[C@@H](C4CC4)C3)nc(-c3ccc(Cl)cc3F)c2c(=O)n1C (single isomer, unassigned) [Example 35]",+++ (Emax>200 and ≤300),5.52 to 6.30
"Cc1nc2cc(N3CCO[C@H](c4cnn(C)c4)C3)nc(-c3ccc(Cl)cc3)c2c(=O)n1C [Example 220, (R)-5-(4-chlorophenyl)-2,3-dimethyl-7-(2-(1-methyl-1H-pyrazol-4-yl)morpholino)pyrido[4,3-d]pyrimidin-4(3H)-one]",++++ (Emax>300),6.30 to 7.30
"COc1cc([C@H]2C[C@@H](c3cc4nc(C)n(C)c(=O)c4c(-c4ccc(Cl)cc4F)n3)CCO2)ccn1 (single isomer, unassigned) [Example 172]",++++ (Emax>300),> 7.30
